Like-named read-outs stand apart in the source and are kept apart here.
Columns and labels:
V600E full-length B-Raf = biological target: T1, V600E full-length B-Raf (Homo sapiens, UniProt P15056, V600E); experiment: B-Raf IC50 assay (Example A); type: biochemical
T1 construct: 1 μM FSBA-MEK and 20 nM V600E full-length B-Raf; made in house; host or cells: Sf9 insect cells (baculovirus)
Excerpt: Determining the activity of Raf in the sample is possible by a number of direct and indirect detection methods (US 2004/0082014). Activity of human recombinant B-Raf protein may be assessed in vitro by assay of the incorporation of radio labeled phosphate to recombinant MAP kinase (MEK), a known physiologic substrate of B-Raf, according to US 2004/0127496 and WO 03/022840. The activity/inhibition of V600E full-length B-Raf was estimated by measuring the incorporation of radio labeled phosphate from [γ-^33P]ATP into FSBA-modified wild-type MEK (see Example A).
Activity of human recombinant B-Raf protein may be assessed in vitro by assay of the incorporation of radio labeled phosphate to recombinant MAP kinase (MEK), a known physiologic substrate of B-Raf, according to US 2004/0127496 and WO 03/022840. Catalytically active human recombinant B-Raf protein is obtained by purification from sf9 insect cells infected with a human B-Raf recombinant baculovirus expression vector.
The activity/inhibition of V600E full-length B-Raf was estimated by measuring the incorporation of radio labeled phosphate from [γ-^33P]ATP into FSBA-modified wild-type MEK. The 30-μL assay mixtures contained 25 mM Na Pipes, pH 7.2, 100 mM KCl, 10 mM MgCl2, 5 mM β-glycerophosphate, […], 4 μM ATP, 500 nCi [γ-^33P]ATP, 1 μM FSBA-MEK and 20 nM V600E full-length B-Raf. Incubations were carried out at 22° C. in a Costar 3365 plate (Corning). Prior to the assay, the B-Raf and FSBA-MEK were preincubated together in assay buffer at 1.5×(20 μL of 30 nM and 1.5 μM, respectively) for 15 minutes, and the assay was initiated by the addition of 10 μL of 10 μM ATP. Following the 60-minute incubation, the assay mixtures were quenched by the addition of 100 μL of 25% TCA, the plate was mixed on a rotary shaker for 1 minute, and the product was captured on a Perkin-Elmer GF/B filter plate using a Tomtec Mach III Harvester. After sealing the bottom of the plate, 35 μL of Bio-Safe II (Research Products International) scintillation cocktail were added to each well and the plate was top-sealed and counted in a Topcount NXT (Packard).

[1] = tested on: basal ERK1/2 phosphorylation in Malme-3M cells; experiment: Cellular ERK 1/2 phosphorylation assay (Example A1); type: cell-based; settings: Homo sapiens, 1 hour incubation, pERK normalized to total ERK, read-out: P-ERK Malme3-M IC50
Protocol: Inhibition of basal ERK1/2 phosphorylation was determined by the following in vitro […], which comprises incubating cells with a compound of Formula I for 1 hour and quantifying the fluorescent pERK signal on fixed cells and normalizing to total ERK signal.
Malme-3M cells were obtained from ATCC and grown in RPMI-1640 supplemented with 10% fetal bovine serum. Cells were plated in 96-well plates at 24,000 cells/well and allowed to attach for 16-20 hours at 37° C., 5% CO2. The media was removed, and DMSO-diluted compounds were added in RPMI-1640 at a final concentration of 1% DMSO. The cells were incubated with the compounds for 1 hour at 37° C., 5% CO2. The cells were washed with PBS and fixed in 3.7% formaldehyde in PBS for 15 minutes. This was followed by washing in PBS/0.05% Tween20 and permeabilizing in −20° C. 100% MeOH for 15 minutes. Cells were washed in PBS/0.05% Tween20 then blocked in Odyssey blocking buffer (LI-COR Biosciences) for 1 hour. Antibodies to phosphorylated ERK (1:400, Cell Signaling #9106, monoclonal) and total ERK (1:400, Santa Cruz Biotechnology #sc-94, polyclonal) were added to the cells and incubated 16-20 hours at 4° C. After washing with PBS/0.05% Tween20, the cells were incubated with fluorescently-labeled secondary antibodies (1:1000 goat anti-rabbit IgG-IRDye800, Rockland and 1:500 goat anti-mouse IgG-Alexa Fluor 680, Molecular Probes) for an additional hour. Cells were then washed and analyzed for fluorescence at both wavelengths using the Odyssey Infrared Imaging System (LI-COR Biosciences). Phosphorylated ERK signal was normalized to total ERK signal.

[2] = B-Raf V600E assay of Example A, read-out: IC50
[3] = BRAF V600E IC50 (μM), [γ-33P]ATP incorporation into FSBA-MEK, 4 μM ATP
[4] = [γ-33P]ATP incorporation into FSBA-MEK, 4 μM ATP, read-out: BRAF V600E IC50

T1 sequence (P15056 whole entry V600E): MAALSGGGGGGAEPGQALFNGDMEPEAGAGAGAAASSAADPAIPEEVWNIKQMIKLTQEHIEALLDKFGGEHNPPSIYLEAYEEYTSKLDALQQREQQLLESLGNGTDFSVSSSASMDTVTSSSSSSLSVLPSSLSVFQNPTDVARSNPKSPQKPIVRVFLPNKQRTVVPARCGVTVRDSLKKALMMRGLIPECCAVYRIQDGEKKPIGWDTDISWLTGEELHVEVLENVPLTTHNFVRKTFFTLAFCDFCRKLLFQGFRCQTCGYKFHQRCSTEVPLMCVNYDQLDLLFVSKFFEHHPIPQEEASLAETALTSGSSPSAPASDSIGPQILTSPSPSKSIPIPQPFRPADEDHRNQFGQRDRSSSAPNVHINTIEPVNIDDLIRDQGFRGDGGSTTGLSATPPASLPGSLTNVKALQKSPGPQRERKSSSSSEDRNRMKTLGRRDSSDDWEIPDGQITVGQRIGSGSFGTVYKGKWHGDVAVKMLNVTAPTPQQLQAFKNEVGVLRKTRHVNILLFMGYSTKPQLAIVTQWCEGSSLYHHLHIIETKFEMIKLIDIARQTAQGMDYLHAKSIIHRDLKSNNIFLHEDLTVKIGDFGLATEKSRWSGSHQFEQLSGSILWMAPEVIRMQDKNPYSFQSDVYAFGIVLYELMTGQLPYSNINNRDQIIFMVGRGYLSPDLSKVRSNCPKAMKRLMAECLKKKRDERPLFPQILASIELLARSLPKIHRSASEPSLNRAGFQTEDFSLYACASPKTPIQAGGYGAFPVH

| Compound | IC50 (V600E full-length B-Raf; [2]) [nM] | IC50 (V600E full-length B-Raf; [3]) [nM] | IC50 [1] [nM] | IC50 (V600E full-length B-Raf; [4]) [nM] |
| --- | --- | --- | --- | --- |
| CCCS(=O)(=O)Nc1ccc(F)c(NC(=O)c2cccc3c(N)ncnc23)c1F [Example 1, 4-Amino-quinazoline-8-carboxylic acid [2,6-difluoro-3-(propane-1-sulfonylamino)-phenyl]-amide] | < 100 | 1.77 | 8.67 |  |
| CCCS(=O)(=O)Nc1ccc(F)c(NC(=O)c2cncc3c(N)ncnc23)c1F [Example 2, 4-Amino-pyrido[4,3-d]pyrimidine-8-carboxylic acid [2,6-difluoro-3-(propane-1-sulfonylamino)-phenyl]-amide] | < 100 |  | 9.6 | 1.25 |
| CCCS(=O)(=O)Nc1ccc(F)c(NC(=O)c2cccc3c(N)ncnc23)c1OC [Example 4, 4-Amino-quinazoline-8-carboxylic acid [6-fluoro-2-methoxy-3-(propane-1-sulfonylamino)-phenyl]-amide] | < 1000 |  | 433 | 191 |
| CCCS(=O)(=O)Nc1cccc(NC(=O)c2cccc3c(N)ncnc23)c1Cl [Example 5, 4-Amino-quinazoline-8-carboxylic acid [2-chloro-3-(propane-1-sulfonylamino)-phenyl]-amide] | < 100 |  | 40.7 | 4.77 |
| CCCS(=O)(=O)Nc1ccc(F)c(NC(=O)c2cccc3c(N)ncnc23)c1 [Example 6, 4-Amino-quinazoline-8-carboxylic acid [2-fluoro-5-(propane-1-sulfonylamino)-phenyl]-amide] | < 100 |  | 1720 | 50.4 |
| CCCS(=O)(=O)Nc1ccc(Cl)c(NC(=O)c2cccc3c(N)ncnc23)c1Cl [Example 7, 4-Amino-quinazoline-8-carboxylic acid [2,6-dichloro-3-(propane-1-sulfonylamino)-phenyl]-amide] | < 100 |  | 7.2 | 0.07 |
| CCCS(=O)(=O)Nc1cccc(NC(=O)c2cccc3c(N)ncnc23)c1F [Example 8, 4-Amino-quinazoline-8-carboxylic acid [2-fluoro-3-(propane-1-sulfonylamino)-phenyl]-amide] | < 100 |  | 32.6 | 10.8 |
| CCCS(=O)(=O)Nc1cc(F)c(F)c(NC(=O)c2cccc3c(N)ncnc23)c1F [Example 9, 4-Amino-quinazoline-8-carboxylic acid [2,3,6-trifluoro-5-(propane-1-sulfonylamino)-phenyl]-amide] | < 100 |  | 12 | 0.39 |
| CC(C)CS(=O)(=O)Nc1ccc(F)c(NC(=O)c2cccc3c(N)ncnc23)c1Cl [Example 10, 4-Amino-quinazoline-8-carboxylic acid [2-chloro-6-fluoro-3-(2-methyl-propane-1-sulfonylamino)-phenyl]-amide] | < 100 |  | 6.73 | 0.55 |
| CCCS(=O)(=O)Nc1cc(F)cc(NC(=O)c2cccc3c(N)ncnc23)c1F [Example 11, 4-Amino-quinazoline-8-carboxylic acid [2,5-difluoro-3-(propane-1-sulfonylamino)-phenyl]-amide] | < 100 |  | 45 | 4.13 |
| CC(C)CS(=O)(=O)Nc1ccc(F)c(NC(=O)c2cccc3c(N)ncnc23)c1F [Example 12, 4-Amino-quinazoline-8-carboxylic acid [2,6-difluoro-3-(2-methyl-propane-1-sulfonylamino)-phenyl]-amide] | < 100 |  | 8.54 | 1.55 |
| Nc1ncnc2c(C(=O)Nc3c(F)ccc(NS(=O)(=O)CC4CC4)c3F)cccc12 [Example 13, 4-Amino-quinazoline-8-carboxylic acid (3-cyclopropyl-methane-sulfonylamino-2,6-difluoro-phenyl)-amide] | < 100 |  | 14.9 | 3.8 |
| CCCS(=O)(=O)Nc1cc(Cl)cc(NC(=O)c2cccc3c(N)ncnc23)c1F [Example 14, 4-Amino-quinazoline-8-carboxylic acid [5-chloro-2-fluoro-3-(propane-1-sulfonylamino)-phenyl]-amide] | < 100 |  | 381 | 27.9 |
| CC(C)CS(=O)(=O)Nc1ccc(Cl)c(NC(=O)c2cccc3c(N)ncnc23)c1F [Example 15, 4-Amino-quinazoline-8-carboxylic acid [6-chloro-2-fluoro-3-(2-methyl-propane-1-sulfonylamino)-phenyl]-amide] | < 100 |  | 6.08 | 0.5 |
| Nc1ncnc2c(C(=O)Nc3c(F)ccc(NS(=O)(=O)CC4CC4)c3Cl)cccc12 [Example 16, 4-Amino-quinazoline-8-carboxylic acid (2-chloro-3-cyclopropyl-methane-sulfonylamino-6-fluoro-phenyl)-amide] | < 100 |  | 15.2 | 2.6 |
| CCCS(=O)(=O)Nc1ccc(Cl)c(NC(=O)c2cccc3c(N)ncnc23)c1F [Example 17, 4-Amino-quinazoline-8-carboxylic acid [6-chloro-2-fluoro-3-(propane-1-sulfonylamino)-phenyl]-amide] | < 100 | 0.58 | 8.7 |  |
| CCS(=O)(=O)Nc1ccc(Cl)c(NC(=O)c2cccc3c(N)ncnc23)c1F [Example 18, 4-Amino-quinazoline-8-carboxylic acid (6-chloro-3-ethanesulfonyl-amino-2-fluoro-phenyl)-amide] | < 100 |  | 18.2 | 1.53 |
| CCS(=O)(=O)Nc1ccc(F)c(NC(=O)c2cccc3c(N)ncnc23)c1F [Example 19, 4-Amino-quinazoline-8-carboxylic acid (3-ethanesulfonyl-amino-2,6-difluoro-phenyl)-amide] | < 100 |  | 25.9 | 4.97 |
| CCS(=O)(=O)Nc1ccc(F)c(NC(=O)c2cccc3c(N)ncnc23)c1Cl [Example 20, 4-Amino-quinazoline-8-carboxylic acid (2-chloro-3-ethanesulfonyl-amino-6-fluoro-phenyl)-amide] | < 100 |  | 32.4 | 2.24 |
| CCCS(=O)(=O)Nc1ccc(C)c(NC(=O)c2cccc3c(N)ncnc23)c1 [Example 21, 4-Amino-quinazoline-8-carboxylic acid [2-methyl-5-(propane-1 sulfonylamino)-phenyl]-amide] | < 100 |  | 1320 | 18.5 |
| CCCS(=O)(=O)Nc1ccc(Cl)c(NC(=O)c2cccc3c(N)ncnc23)c1 [Example 22, 4-Amino-quinazoline-8-carboxylic acid [2-chloro-5-(propane-1-sulfonylamino)-phenyl]-amide] | < 100 |  | 1110 | 64.9 |
| CCCS(=O)(=O)Nc1ccc(F)c(NC(=O)c2cc(C)cc3c(NC4CCC(F)(F)CC4)ncnc23)c1F [Example 76, 4-(4,4-Difluoro-cyclohexylamino)-6-methyl-quinazoline-8-carboxylic acid [2,6-difluoro-3-(propane-1-sulfonylamino)-phenyl]-amide] |  |  |  | > 1000 |

From patent publication US20130018033A1, “RAF INHIBITOR COMPOUNDS AND METHODS OF USE THEREOF” (ARRAY BIOPHARMA INC., priority 2009, published 2013)
